Experimental data reported in the supplement of paper PMC10307832.

Experiments:
Test in all cases: relative viability (nuclei count vs DMSO), 5 days (fraction); higher = more cells survive
[1] = compound: NCC(=O)Nc1ccc(-n2nc(C(F)(F)F)cc2-c2ccc3c(ccc4ccccc43)c2)cc1 + CC(C)C[C@H](NC(=O)[C@H](Cc1ccccc1)NC(=O)c1cnccn1)B(O)O [Bortezomib] (partner 0.002 µM)
Outline: (§1)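 Five library-drug doses in √10 steps were combined with a fixed anchor-drug dose, or a single drug was given alone, by pin tool to lung cancer cell lines in 1536-well plates the day after seeding. Nuclei were stained and counted after 5 days. Relative viability is the nuclei count in treated wells over that in vehicle wells, taken as the median of duplicate plates.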

[2] = compound: NCC(=O)Nc1ccc(-n2nc(C(F)(F)F)cc2-c2ccc3c(ccc4ccccc43)c2)cc1 + C[C@]1(O)C[C@@H](c2nc(-c3ccc4ccc(-c5ccccc5)nc4c3)c3c(N)nccn32)C1 [Linsitinib] (partner 1 µM)
Outline: as §1

[3] = compound: C1CSC2=C(C(=O)N1)SC3=C2C=C(C=C3)O [kb NB 142-70] + Nc1nc2[nH]cc(CCc3ccc(C(=O)N[C@@H](CCC(=O)O)C(=O)O)cc3)c2c(=O)[nH]1 [Pemetrexed] (partner 0.2 µM)
Outline: as §1

[4] = compound: C1CSC2=C(C(=O)N1)SC3=C2C=C(C=C3)O [kb NB 142-70] + C[C@@H](Oc1cc(-c2cnn(C3CCNCC3)c2)cnc1N)c1c(Cl)ccc(F)c1Cl [Crizotinib] (partner 1 µM)
Outline: as §1

[5] = compound: C1CSC2=C(C(=O)N1)SC3=C2C=C(C=C3)O [kb NB 142-70] + CCNC(=O)c1noc(-c2cc(C(C)C)c(O)cc2O)c1-c1ccc(CN2CCOCC2)cc1 [Luminespib] (partner 0.01 µM)
Outline: as §1

Row | Cell Line | relative viability ([1]; first compound 0.02 µM) | relative viability ([1]; first compound 0.06325 µM) | relative viability ([1]; first compound 0.2 µM) | relative viability ([1]; first compound 0.6325 µM) | relative viability ([1]; first compound 2 µM) | relative viability ([2]; first compound 0.02 µM) | relative viability ([2]; first compound 0.06325 µM) | relative viability ([2]; first compound 0.2 µM) | relative viability ([2]; first compound 0.6325 µM) | relative viability ([2]; first compound 2 µM) | relative viability ([3]; first compound 0.1 µM) | relative viability ([3]; first compound 1 µM) | relative viability ([3]; first compound 3.162 µM) | relative viability ([4]; first compound 0.1 µM) | relative viability ([4]; first compound 1 µM) | relative viability ([4]; first compound 3.162 µM) | relative viability ([5]; first compound 0.1 µM) | relative viability ([5]; first compound 1 µM) | relative viability ([5]; first compound 3.162 µM)
1 | HCC-78 | 0.53 | 0.568 | 0.496 | 0.571 | 0.505 | 0.572 | 0.563 | 0.498 | 0.49 | 0.541 | 0.896 | 0.907 | 0.899 | 0.305 | 0.372 | 0.353 |  |  | 
2 | HCC-366 | 1.17 | 1.03 | 1.04 | 1.02 | 1.01 | 0.784 | 0.645 | 0.431 | 0.557 | 0.675 | 0.182 | 0.214 | 0.34 | 0.533 | 0.633 | 0.463 |  |  | 
3 | HCC-827 | 1.02 | 1.12 | 1.04 | 1 | 1.15 | 0.93 | 0.972 | 1 | 0.956 | 0.958 | 0.25 | 0.243 | 0.267 | 0.918 | 0.947 | 0.921 | 0.589 | 0.59 | 0.373
4 | HOP-62 | 0.828 | 0.859 | 0.728 | 0.339 | 1.02 | 1.14 | 0.901 | 0.854 | 1.03 | 1.05 | 0.3 | 0.361 | 0.388 | 0.869 | 1.02 | 1.03 | 0.971 | 0.884 | 1.06
5 | IA-LM | 0.775 | 0.721 | 0.802 | 0.814 | 0.813 | 0.802 | 0.39 | 0.558 | 0.706 | 0.539 |  |  |  | 0.856 | 1.25 | 0.894 |  |  | 
6 | LC-2-ad | 1.1 | 1.03 | 0.997 | 0.912 | 1.12 | 0.996 | 0.94 | 0.876 | 0.852 | 0.897 | 0.275 | 0.23 | 0.295 | 0.446 | 0.429 | 0.421 | 0.997 | 1.04 | 0.699
7 | LCLC-97TM1 | 0.814 | 0.75 | 0.35 | 0.538 | 0.539 | 0.146 | 0.185 |  | 0.198 | 0.183 | 0.174 | 0.186 | 0.182 | 0.382 | 0.331 | 0.201 | 0.72 | 0.76 | 0.692
8 | LCLC-103H | 1.03 | 1 | 1.13 | 1.07 | 1.1 | 1.16 | 0.997 | 1.12 | 1.11 | 0.978 | 0.447 | 0.453 | 0.471 | 0.997 | 1.12 | 1.03 | 0.956 | 0.997 | 0.903
9 | LK-2 |  |  |  |  |  | 0.686 | 0.437 | 0.483 | 0.555 | 0.522 | 0.327 | 0.215 | 0.224 | 0.225 | 0.226 | 0.204 | 0.206 | 0.215 | 0.173
